From PubChem BioAssay (NCI) come the findings set out here.

Common to all, as to test: NCI-60 cell line screen, 48 h
For test [1], the system named is SW-620 colon.
For test [2], the system named is SK-MEL-5 melanoma.
Test [3] relates to UACC-62 melanoma.
The test system of test [4] is DMS 114 small cell lung.
Test [5] deals with OVCAR-4 ovarian.
Test [6] relates to OVCAR-5 ovarian.
Test [7] concerns DLD-1 colon.
In test [8] the test system is NCI-H226 lung.
Test [9] deals with SN12C renal.
In test [10] the test system is BT-549 breast.

Molecules are shown by their SMILES. Several values for one entry are separate records, joined by “and”; a condition that tells them apart may be missing. Equal values may be shown once.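 Test compounds were applied to cells in 96-well plates for 48 hours at 5 doses. GI50 marks 50% less growth. TGI: concentration producing complete growth inhibition.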

Turning to `OC(c1ccccc1)(c1ccccc1)c1ccncc1`, the TGI in [1], in [2], in [3], in test [4], in test [5] and in [6] was above 100 µM throughout. For the same compound, the TGI in test [7], in [8] and in test [9] was above 100 µM in each case.

For `Cc1cc(O)c(C(C)C)cc1S(=O)(=O)O` (tested in a mixture with another compound), the GI50 in test [1] is 0.404 µM; in test [2] it was 0.394 µM; in test [3], 0.566 µM; in test [10], 2.26 µM; in [5] it was 0.507 µM; in [6] it was 0.727 µM. For the same compound, the GI50 in test [8] was 0.85 µM; in test [9], 0.448 µM. The TGI in [2] is 1.44 µM; in [4] it was above 100 µM; in test [10], 7.54 µM; in [5], 6.64 µM; in test [6], 7.54 µM; in test [7], above 100 µM.

As to `COc1cc2c(c(OC)c1OC)-c1ccc(SC)c(=O)cc1C(CO)C2` (stereo not given), the GI50 in test [1] was below 0.01 µM; in [2], below 0.01 µM; in test [3], below 0.01 µM; in [4], below 0.01 µM; in test [5], below 0.01 µM; in test [6], above 100 µM. Moreover, the GI50 in test [7], in test [8] and in test [9] was below 0.01 µM each time. Moreover, the TGI is above 100 µM in [1]; 15.7 µM in test [3]; above 100 µM in [5]; above 100 µM in test [6]; 0.59 µM and 0.138 µM in [8]; above 100 µM in [9].

For the compound `CCOc1ccccc1N1C(=O)C(=O)C(c2nc3ccccc3o2)C(=O)C1=O`, the TGI in test [1] is above 100 µM; in test [2], above 100 µM; in test [3], above 100 µM; in test [4], above 100 µM; in [5] it was 45.7 µM; in test [6] it was above 100 µM. Also, the TGI in test [7], in test [8] and in test [9] was above 100 µM each time.

In the case of `CC(C)C1CC[C@@H](C)C[C@@]1(O)CC(N)=O` (stereo not given in full), the TGI in test [1], in [2], in [3], in test [4], in [5] and in test [6] was above 100 µM in each case. For the same compound, the TGI in test [7], in [8] and in [9] was above 100 µM in each case.

Consider `Cc1cccc(C)c1NC(=O)C(C#N)C1=C(Cl)C(=O)c2ccccc2C1=O` (stereo not given), for which the TGI came to 34.3 µM in [1]; 26.7 µM in test [2]; 33.4 µM in [3]; 41.8 µM in [4]; 28.2 µM in test [10]; 30.3 µM in [5]. Moreover, the TGI turned out to be 37.4 µM in test [6], 30.1 µM in [7], 17.4 µM in test [8] and 32 µM in test [9].

Turning to `COc1c(C)c2c(c(O)c1C/C=C(\C)CCC(=O)O)C(=O)OC2`, the GI50 is 0.167 µM in test [1]; 0.411 µM in [2]; 0.444 µM in test [3]; 0.818 µM in [10]; 0.776 µM in test [5]; 1.79 µM in [6]. Also, the GI50 was 2.58 µM in [8] and 0.499 µM in test [9]. Besides, the TGI in test [1] is above 100 µM; in [2], above 100 µM; in [3] it was above 100 µM; in [4], 78.3 µM; in test [10], above 100 µM; in [5] it was above 100 µM. For the same compound, the TGI in test [6], in [7], in test [8] and in [9] was above 100 µM throughout.

On to `CCS(CC)(CC)CC1CCCC2=CCC(P(=O)(c3ccccc3)c3ccccc3)CC21` (stereo not given), for which the TGI in test [1] is 31.5 µM; in test [2] it was 29.8 µM; in test [3], 13.5 µM; in test [4], 24.8 µM; in test [5], 26 µM; in test [6] it was 30.4 µM. Moreover, the results for the TGI in test [7], in [8] and in test [9] were 28.7 µM, 39.6 µM and 26.3 µM, respectively.

On to `Nc1ccnc(=O)[nH]1`, for which the TGI in [1], in test [2], in test [3], in test [4], in test [5] and in test [6] was above 100 µM throughout. Further, the TGI in [7], in test [8] and in [9] was above 100 µM each time.

With `c1ccc2c(c1)cc(C1NCCc3[nH]cnc31)c1ccccc12` (stereo not given), the TGI in test [1] is above 60.5 µM; in test [2] it was above 69.8 µM; in test [3], above 51.1 µM; in [4], above 64.3 µM; in test [5], above 86.8 µM; in test [6] it was above 100 µM. Besides, the TGI in test [7] is above 100 µM; in test [8], above 68.1 µM; in [9], above 100 µM.

Regarding `Oc1ccccc1/C=C/c1csnn1`, the TGI in test [1], in test [2], in test [3], in test [4], in [5] and in [6] was above 100 µM throughout. The TGI in [7], in test [8] and in test [9] was above 100 µM each time.
